How the values were obtained:
Test in all cases: relative viability (nuclei count vs DMSO), 5 days (fraction); higher = more cells survive
Avagacestat + Vorinostat = compound: NC(=O)[C@@H](CCC(F)(F)F)N(Cc1ccc(-c2ncon2)cc1F)S(=O)(=O)c1ccc(Cl)cc1 [Avagacestat] + O=C(CCCCCCC(=O)Nc1ccccc1)NO [Vorinostat] (partner 1 µM)
Outline: (§1)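 Relative viability equals treated-well nuclei counts divided by vehicle-well nuclei counts. Counts came from 4× images of lung cancer cell lines grown in 1536-well plates for 5 days after pin-tool dosing on the day after seeding. Dosing used one drug alone or a fixed anchor-drug dose plus five library-drug doses (not always all listed) in √10 steps, and values are medians of duplicate plates.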

Avagacestat + Navitoclax = compound: NC(=O)[C@@H](CCC(F)(F)F)N(Cc1ccc(-c2ncon2)cc1F)S(=O)(=O)c1ccc(Cl)cc1 [Avagacestat] + CC1(C)CCC(c2ccc(Cl)cc2)=C(CN2CCN(c3ccc(C(=O)NS(=O)(=O)c4ccc(N[C@H](CCN5CCOCC5)CSc5ccccc5)c(S(=O)(=O)C(F)(F)F)c4)cc3)CC2)C1 [Navitoclax] (partner 0.5 µM)
Outline: as §1

Avagacestat + Alpelisib = compound: NC(=O)[C@@H](CCC(F)(F)F)N(Cc1ccc(-c2ncon2)cc1F)S(=O)(=O)c1ccc(Cl)cc1 [Avagacestat] + Cc1nc(NC(=O)N2CCC[C@H]2C(N)=O)sc1-c1ccnc(C(C)(C)C(F)(F)F)c1 [Alpelisib] (partner 2 µM)
Outline: as §1

Avagacestat + Linsitinib = compound: NC(=O)[C@@H](CCC(F)(F)F)N(Cc1ccc(-c2ncon2)cc1F)S(=O)(=O)c1ccc(Cl)cc1 [Avagacestat] + C[C@]1(O)C[C@@H](c2nc(-c3ccc4ccc(-c5ccccc5)nc4c3)c3c(N)nccn32)C1 [Linsitinib] (partner 1 µM)
Outline: as §1

Row | Cell Line | relative viability (Avagacestat + Vorinostat; first compound 0.08 µM) | relative viability (Avagacestat + Vorinostat; first compound 0.253 µM) | relative viability (Avagacestat + Vorinostat; first compound 0.8 µM) | relative viability (Avagacestat + Vorinostat; first compound 2.53 µM) | relative viability (Avagacestat + Vorinostat; first compound 8 µM) | relative viability (Avagacestat + Navitoclax; first compound 0.08 µM) | relative viability (Avagacestat + Navitoclax; first compound 0.253 µM) | relative viability (Avagacestat + Navitoclax; first compound 0.8 µM) | relative viability (Avagacestat + Navitoclax; first compound 2.53 µM) | relative viability (Avagacestat + Navitoclax; first compound 8 µM) | relative viability (Avagacestat + Alpelisib; first compound 0.08 µM) | relative viability (Avagacestat + Alpelisib; first compound 0.253 µM) | relative viability (Avagacestat + Alpelisib; first compound 0.8 µM) | relative viability (Avagacestat + Alpelisib; first compound 2.53 µM) | relative viability (Avagacestat + Alpelisib; first compound 8 µM) | relative viability (Avagacestat + Linsitinib; first compound 0.08 µM) | relative viability (Avagacestat + Linsitinib; first compound 0.253 µM) | relative viability (Avagacestat + Linsitinib; first compound 0.8 µM) | relative viability (Avagacestat + Linsitinib; first compound 2.53 µM) | relative viability (Avagacestat + Linsitinib; first compound 8 µM)
1 | LOU-NH91 | 1 | 0.878 | 1.03 | 0.798 | 0.885 | 0.69 | 0.723 | 0.684 | 0.531 | 0.646 | 0.712 | 0.724 | 0.779 | 0.608 | 0.738 | 0.966 | 0.883 | 1.01 | 0.786 | 0.929
2 | HARA | 0.572 | 0.551 | 0.524 | 0.716 | 0.549 | 1.39 | 1.27 | 1.23 | 1.17 | 1.2 | 0.914 | 0.783 | 0.929 | 0.782 | 0.567 | 1.29 | 1.28 | 1.01 | 0.79 | 0.907
3 | HCC-827 | 0.75 | 0.849 | 0.855 | 0.946 | 0.832 | 1.12 | 1.02 | 1.11 | 1.07 | 1.02 | 1.04 | 0.984 | 1.05 | 0.874 | 0.972 | 1.03 | 1.02 | 0.931 | 0.995 | 1.08
4 | NCI-H1703 | – | – | – | – | – | 1.16 | 0.993 | 1.17 | 1.11 | 0.891 | 0.444 | 0.387 | 0.405 | 0.378 | 0.385 | 0.982 | 0.768 | 0.854 | 0.784 | 0.93
5 | NCI-H661 | 0.845 | 0.98 | 0.827 | 0.784 | 0.785 | – | – | – | – | – | 0.803 | 0.664 | 1.08 | – | 0.589 | 0.736 | 0.713 | 0.634 | – | 0.566
6 | EBC-1 | – | – | – | – | – | 0.342 | 0.392 | 0.334 | 0.372 | 0.296 | 0.691 | 0.78 | 0.743 | 0.738 | 0.555 | 0.88 | 0.914 | 1.09 | 0.995 | 0.649
7 | NCI-H1648 | 0.512 | 0.374 | 0.31 | 0.35 | 0.276 | – | – | – | – | – | – | – | – | – | – | – | – | – | – | –
8 | SW 900 | 0.502 | 0.828 | 0.554 | 0.535 | 0.641 | – | – | – | – | – | – | – | – | – | – | – | – | – | – | –
9 | ABC-1 | 1.22 | 1.14 | 1.71 | 1.15 | 1.02 | – | – | – | – | – | 1.11 | 1.02 | 1.26 | 1.11 | 1.29 | 0.979 | 1.06 | 0.866 | 0.786 | 0.737
10 | NCI-H650 | 0.439 | 0.537 | 0.56 | 0.455 | 0.435 | – | – | – | – | – | 1.12 | 1.57 | 1.21 | 1.32 | 1.19 | 1.22 | 0.927 | 1.08 | 0.912 | 0.848
11 | NCI-H1650 | 0.593 | 0.692 | 0.51 | 0.599 | 0.67 | 1.1 | 1.31 | 1.52 | 1.43 | 1.12 | – | – | – | – | – | – | – | – | – | –
12 | ChaGo-K-1 | 0.783 | 0.874 | 0.79 | 0.755 | 0.692 | 0.987 | 0.926 | 1.32 | 1.24 | 1.17 | – | – | – | – | – | – | – | – | – | –
13 | NCI-H2170 | 1.35 | 0.995 | 0.821 | 0.876 | 0.617 | 0.745 | 0.594 | 0.621 | 0.417 | 0.548 | 1.02 | 0.843 | 0.883 | 0.751 | 0.721 | – | – | – | – | –
14 | NCI-H522 | 1.04 | 1.01 | 0.928 | 0.866 | 0.792 | – | – | – | – | – | – | – | – | – | – | – | – | – | – | –
15 | A549 | – | – | – | – | – | 1.64 | 1.65 | 1.27 | 1.26 | 1.25 | 1.02 | 0.99 | 0.694 | 0.673 | 0.771 | 0.826 | 0.582 | 0.58 | 0.571 | 0.459
16 | NCI-H358 | 0.911 | 0.762 | 0.733 | 0.557 | 0.679 | – | – | – | – | – | 0.938 | 0.908 | 0.872 | 0.711 | 0.777 | 0.774 | 0.822 | 0.839 | 0.687 | 0.724
17 | LCLC-103H | 0.807 | 0.759 | 0.846 | 0.864 | 0.673 | – | – | – | – | – | 0.983 | 0.939 | 1.01 | 0.842 | 0.753 | 1.08 | 1.01 | 1.24 | 1.01 | 0.877
18 | NCI-H1299 | – | – | – | – | – | 1.04 | 1.03 | 1.08 | 1.08 | 1.04 | 1.1 | 1.18 | 1.08 | 1.02 | 0.886 | 0.987 | 1.12 | 1 | 0.988 | 0.926
19 | NCI-H1792 | – | – | – | – | – | 1.25 | 0.584 | 1.13 | 0.538 | 0.417 | 0.871 | 0.618 | 0.774 | 0.541 | 0.562 | 0.648 | 0.424 | 0.692 | 0.383 | 0.368
20 | NCI-H1563 | – | – | – | – | – | – | – | – | – | – | 0.925 | 0.989 | 0.937 | 0.934 | 0.8 | 1.25 | 1.26 | 1.18 | 1.03 | 1
21 | Calu-6 | – | – | – | – | – | 1.07 | 0.99 | 0.922 | 1.06 | 0.81 | 1.18 | 1.16 | 1.12 | 1.12 | 0.993 | 1.05 | 1.04 | 1.07 | 1.03 | 0.784

Source: the supplement of paper PMC10307832
